According to ChEMBL document CHEMBL1201862, “PubChem BioAssay data set” (2004):
Active and inactive are the calls of the source.

Tests used:
[1] = target: Sphingosine 1-phosphate receptor 4 (Homo sapiens, UniProt O95977); experiment: Fluorescence dose response cell-based high throughput screening assay for antagonists of the Sphingosine 1-Phosphate Receptor 4 (S1P4). [Related pubchem assays: 1524 (Confirmation in triplicates.), 1510 (Primary screen.)]; assay type: functional
[2] = target: T1, Hexokinase HKDC1 (Homo sapiens, UniProt Q2TB90); experiment: inhibition of HKDC1 glucose phosphorylation – biochemical, W721R variant, dose response (AID 504729); assay type: functional
T1 sequence (Q2TB90 whole entry): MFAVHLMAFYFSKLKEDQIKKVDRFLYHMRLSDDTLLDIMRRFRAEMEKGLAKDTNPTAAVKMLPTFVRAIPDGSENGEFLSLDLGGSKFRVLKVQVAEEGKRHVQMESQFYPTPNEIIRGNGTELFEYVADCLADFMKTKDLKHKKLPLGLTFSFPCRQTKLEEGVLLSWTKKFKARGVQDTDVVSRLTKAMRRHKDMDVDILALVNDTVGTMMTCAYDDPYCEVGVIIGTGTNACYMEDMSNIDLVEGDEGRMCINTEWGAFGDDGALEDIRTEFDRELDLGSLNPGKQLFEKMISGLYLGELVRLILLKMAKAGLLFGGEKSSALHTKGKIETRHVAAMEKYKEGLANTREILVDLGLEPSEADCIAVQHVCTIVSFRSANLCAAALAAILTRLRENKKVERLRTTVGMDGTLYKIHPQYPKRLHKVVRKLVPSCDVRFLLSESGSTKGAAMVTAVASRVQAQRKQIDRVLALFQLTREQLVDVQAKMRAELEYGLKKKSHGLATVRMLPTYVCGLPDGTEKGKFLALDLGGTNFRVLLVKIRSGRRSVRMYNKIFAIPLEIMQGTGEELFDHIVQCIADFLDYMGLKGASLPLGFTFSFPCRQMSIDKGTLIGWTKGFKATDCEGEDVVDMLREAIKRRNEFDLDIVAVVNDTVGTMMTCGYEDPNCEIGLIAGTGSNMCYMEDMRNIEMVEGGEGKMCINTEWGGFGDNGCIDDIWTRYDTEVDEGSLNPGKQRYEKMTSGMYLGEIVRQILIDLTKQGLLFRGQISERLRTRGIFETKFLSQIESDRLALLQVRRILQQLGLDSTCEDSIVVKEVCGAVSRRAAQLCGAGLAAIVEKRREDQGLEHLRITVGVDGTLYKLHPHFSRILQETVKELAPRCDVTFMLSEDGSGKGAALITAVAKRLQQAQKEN

[3] = target: Large T antigen (Simian virus 40, UniProt P03070); assay type: functional, Betapolyomavirus macacae;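 further: Confirmatory-stage PubChem screen for compounds that inhibit SV40 T antigen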
[4] = target: Protein kinase C zeta type (Homo sapiens, UniProt Q05513); assay type: functional;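 further: measured as one member of a broad kinase profiling panel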
[5] = target: Serine/threonine-protein kinase PLK4 (Homo sapiens, UniProt O00444); assay type: functional;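 further: PLK4 measured as one member of a kinome-wide kinase profiling panel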
[6] = target: Homeodomain-interacting protein kinase 2 (Homo sapiens, UniProt Q9H2X6); assay type: functional;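 further: measured within a kinome-wide kinase profiling panel, HIPK2 being one panel member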
[7] = target: Vascular endothelial growth factor receptor 1 (Homo sapiens, UniProt P17948); assay type: functional;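 further: measured within a kinome-wide profiling panel, FLT1 as the panel member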
[8] = target: T2, Serine/threonine-protein kinase Chk1 (Homo sapiens, UniProt O14757); assay type: functional;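 further: measured as one member of a kinome-wide kinase profiling panel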
T2 sequence (O14757 whole entry): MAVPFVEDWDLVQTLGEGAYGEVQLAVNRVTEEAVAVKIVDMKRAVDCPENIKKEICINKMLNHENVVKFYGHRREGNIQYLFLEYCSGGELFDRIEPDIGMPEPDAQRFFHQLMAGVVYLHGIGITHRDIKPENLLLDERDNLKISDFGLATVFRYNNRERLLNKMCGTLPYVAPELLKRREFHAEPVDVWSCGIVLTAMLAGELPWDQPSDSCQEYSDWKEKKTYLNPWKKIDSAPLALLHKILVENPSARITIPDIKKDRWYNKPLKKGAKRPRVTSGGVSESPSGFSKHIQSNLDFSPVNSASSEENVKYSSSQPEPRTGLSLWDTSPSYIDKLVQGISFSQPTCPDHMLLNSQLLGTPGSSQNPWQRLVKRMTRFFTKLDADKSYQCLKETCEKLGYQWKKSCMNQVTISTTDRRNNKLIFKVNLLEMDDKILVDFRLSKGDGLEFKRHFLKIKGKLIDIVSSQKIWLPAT

[9] = target: Casein kinase I isoform alpha (Homo sapiens, UniProt P48729); assay type: functional
[10] = target: Tyrosine-protein kinase receptor TYRO3 (Homo sapiens, UniProt Q06418); assay type: functional;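 further: TYRO3 value obtained as one member of a kinome-wide profiling panel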
[11] = target: Fibroblast growth factor receptor 1 (Homo sapiens, UniProt P11362); assay type: functional
[12] = target: Protein kinase C gamma type (Homo sapiens, UniProt P05129); assay type: functional
[13] = target: Tyrosine-protein kinase ITK/TSK (Homo sapiens, UniProt Q08881); assay type: functional;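 further: affinity for ITK measured as one member of a broad kinase panel profiling binding across the kinome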
Chain of Tyrosine-protein kinase ITK/TSK (Q08881 whole entry): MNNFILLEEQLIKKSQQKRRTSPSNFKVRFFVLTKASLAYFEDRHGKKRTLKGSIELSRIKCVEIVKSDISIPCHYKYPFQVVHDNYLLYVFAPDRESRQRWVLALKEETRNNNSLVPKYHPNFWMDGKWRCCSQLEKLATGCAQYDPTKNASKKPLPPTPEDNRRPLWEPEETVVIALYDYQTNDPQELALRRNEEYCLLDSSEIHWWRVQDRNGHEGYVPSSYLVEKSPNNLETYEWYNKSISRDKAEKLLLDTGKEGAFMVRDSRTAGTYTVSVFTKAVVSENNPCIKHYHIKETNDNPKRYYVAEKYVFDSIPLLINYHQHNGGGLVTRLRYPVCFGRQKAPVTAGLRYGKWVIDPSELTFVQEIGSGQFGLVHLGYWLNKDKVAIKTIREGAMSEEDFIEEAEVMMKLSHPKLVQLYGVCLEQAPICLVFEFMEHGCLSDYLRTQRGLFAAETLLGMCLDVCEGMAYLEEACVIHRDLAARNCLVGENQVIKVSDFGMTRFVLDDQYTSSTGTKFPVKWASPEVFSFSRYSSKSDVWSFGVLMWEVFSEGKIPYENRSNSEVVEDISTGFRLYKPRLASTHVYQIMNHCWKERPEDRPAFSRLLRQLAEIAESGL

Chain of Fibroblast growth factor receptor 1 (P11362 whole entry): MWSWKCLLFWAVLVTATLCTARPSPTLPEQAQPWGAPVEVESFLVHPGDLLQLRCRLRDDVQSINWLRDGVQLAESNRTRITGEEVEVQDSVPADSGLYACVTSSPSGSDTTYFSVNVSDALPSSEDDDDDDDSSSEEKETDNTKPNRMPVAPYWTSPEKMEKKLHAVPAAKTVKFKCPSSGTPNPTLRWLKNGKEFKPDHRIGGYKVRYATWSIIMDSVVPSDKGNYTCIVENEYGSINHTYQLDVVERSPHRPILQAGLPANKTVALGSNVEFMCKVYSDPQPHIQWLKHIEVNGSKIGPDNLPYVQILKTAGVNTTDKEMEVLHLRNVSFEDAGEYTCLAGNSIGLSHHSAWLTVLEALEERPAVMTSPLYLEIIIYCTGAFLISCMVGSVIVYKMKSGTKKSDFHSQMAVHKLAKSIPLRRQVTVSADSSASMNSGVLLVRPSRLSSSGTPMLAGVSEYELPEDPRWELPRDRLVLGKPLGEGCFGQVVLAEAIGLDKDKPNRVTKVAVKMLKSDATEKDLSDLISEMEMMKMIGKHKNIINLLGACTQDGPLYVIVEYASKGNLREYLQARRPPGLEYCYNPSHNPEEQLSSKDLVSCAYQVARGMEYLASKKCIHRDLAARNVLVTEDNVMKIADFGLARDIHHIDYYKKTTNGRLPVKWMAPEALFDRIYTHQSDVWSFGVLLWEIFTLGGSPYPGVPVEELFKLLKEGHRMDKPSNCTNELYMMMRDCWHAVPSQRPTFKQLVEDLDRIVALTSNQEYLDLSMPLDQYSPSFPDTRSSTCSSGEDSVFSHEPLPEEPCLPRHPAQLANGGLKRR
Chain of Casein kinase I isoform alpha (P48729 whole entry, canonical isoform): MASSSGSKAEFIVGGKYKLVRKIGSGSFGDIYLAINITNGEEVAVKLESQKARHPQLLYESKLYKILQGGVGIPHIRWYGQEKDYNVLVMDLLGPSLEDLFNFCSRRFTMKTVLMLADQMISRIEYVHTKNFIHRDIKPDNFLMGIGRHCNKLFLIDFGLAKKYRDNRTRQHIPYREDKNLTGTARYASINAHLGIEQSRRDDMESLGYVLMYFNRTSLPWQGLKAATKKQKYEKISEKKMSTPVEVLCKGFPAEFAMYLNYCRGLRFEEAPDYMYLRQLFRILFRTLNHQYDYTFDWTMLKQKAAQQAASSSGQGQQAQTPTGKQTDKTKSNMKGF
Chain of Tyrosine-protein kinase receptor TYRO3 (Q06418 whole entry): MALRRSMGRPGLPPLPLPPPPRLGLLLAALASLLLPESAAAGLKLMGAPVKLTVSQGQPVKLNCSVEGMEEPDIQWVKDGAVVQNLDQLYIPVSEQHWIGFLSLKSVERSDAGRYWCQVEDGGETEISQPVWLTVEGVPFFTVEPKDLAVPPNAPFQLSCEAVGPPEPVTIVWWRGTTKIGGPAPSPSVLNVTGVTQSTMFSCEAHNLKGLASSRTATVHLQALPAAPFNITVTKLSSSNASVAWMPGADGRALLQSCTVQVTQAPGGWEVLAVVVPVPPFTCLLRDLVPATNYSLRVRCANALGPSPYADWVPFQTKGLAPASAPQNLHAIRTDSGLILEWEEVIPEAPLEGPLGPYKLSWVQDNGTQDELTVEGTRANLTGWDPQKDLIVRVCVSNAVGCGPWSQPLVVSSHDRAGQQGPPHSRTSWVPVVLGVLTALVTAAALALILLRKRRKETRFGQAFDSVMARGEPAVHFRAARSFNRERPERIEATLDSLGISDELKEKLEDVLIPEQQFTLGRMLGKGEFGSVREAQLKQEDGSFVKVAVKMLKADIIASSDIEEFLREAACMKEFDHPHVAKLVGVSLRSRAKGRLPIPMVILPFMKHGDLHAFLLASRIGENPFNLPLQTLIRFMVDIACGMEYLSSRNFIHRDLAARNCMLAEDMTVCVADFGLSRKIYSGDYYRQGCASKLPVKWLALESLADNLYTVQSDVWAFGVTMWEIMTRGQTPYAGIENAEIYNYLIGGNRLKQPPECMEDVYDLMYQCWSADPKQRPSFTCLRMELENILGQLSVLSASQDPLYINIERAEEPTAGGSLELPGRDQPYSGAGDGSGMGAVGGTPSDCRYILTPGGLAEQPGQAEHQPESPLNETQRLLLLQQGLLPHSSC
Chain of Homeodomain-interacting protein kinase 2 (Q9H2X6 whole entry): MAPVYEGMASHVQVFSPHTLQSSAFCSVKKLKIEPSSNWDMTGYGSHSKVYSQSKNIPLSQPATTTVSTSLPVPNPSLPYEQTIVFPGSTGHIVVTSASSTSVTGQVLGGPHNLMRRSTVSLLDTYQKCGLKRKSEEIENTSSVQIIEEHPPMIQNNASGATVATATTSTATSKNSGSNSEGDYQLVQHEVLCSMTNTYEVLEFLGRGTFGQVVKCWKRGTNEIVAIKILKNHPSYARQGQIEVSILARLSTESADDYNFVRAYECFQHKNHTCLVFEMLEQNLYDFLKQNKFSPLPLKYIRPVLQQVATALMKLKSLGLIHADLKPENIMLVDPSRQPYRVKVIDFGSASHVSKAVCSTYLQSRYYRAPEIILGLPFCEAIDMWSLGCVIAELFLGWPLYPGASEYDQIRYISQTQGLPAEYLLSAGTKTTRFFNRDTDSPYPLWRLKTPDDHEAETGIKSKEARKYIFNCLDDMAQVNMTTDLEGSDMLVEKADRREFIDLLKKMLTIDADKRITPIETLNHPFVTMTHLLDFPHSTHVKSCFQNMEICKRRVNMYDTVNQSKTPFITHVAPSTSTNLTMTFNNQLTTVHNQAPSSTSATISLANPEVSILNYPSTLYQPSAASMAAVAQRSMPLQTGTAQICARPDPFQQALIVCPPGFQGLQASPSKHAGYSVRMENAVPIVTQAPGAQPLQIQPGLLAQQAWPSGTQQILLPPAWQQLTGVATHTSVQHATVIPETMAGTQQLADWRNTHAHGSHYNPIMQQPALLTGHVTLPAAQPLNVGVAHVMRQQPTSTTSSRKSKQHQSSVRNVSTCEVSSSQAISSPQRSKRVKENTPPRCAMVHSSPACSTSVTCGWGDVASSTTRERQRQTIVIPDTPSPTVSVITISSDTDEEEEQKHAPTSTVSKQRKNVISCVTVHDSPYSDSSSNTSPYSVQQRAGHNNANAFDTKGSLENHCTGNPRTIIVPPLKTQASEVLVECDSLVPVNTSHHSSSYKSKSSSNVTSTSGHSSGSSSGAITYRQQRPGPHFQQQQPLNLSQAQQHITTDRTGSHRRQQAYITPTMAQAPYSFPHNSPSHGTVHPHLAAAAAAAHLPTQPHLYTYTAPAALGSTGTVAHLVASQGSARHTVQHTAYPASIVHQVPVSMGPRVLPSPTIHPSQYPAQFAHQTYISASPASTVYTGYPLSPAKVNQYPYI
Chain of Large T antigen (P03070 whole entry): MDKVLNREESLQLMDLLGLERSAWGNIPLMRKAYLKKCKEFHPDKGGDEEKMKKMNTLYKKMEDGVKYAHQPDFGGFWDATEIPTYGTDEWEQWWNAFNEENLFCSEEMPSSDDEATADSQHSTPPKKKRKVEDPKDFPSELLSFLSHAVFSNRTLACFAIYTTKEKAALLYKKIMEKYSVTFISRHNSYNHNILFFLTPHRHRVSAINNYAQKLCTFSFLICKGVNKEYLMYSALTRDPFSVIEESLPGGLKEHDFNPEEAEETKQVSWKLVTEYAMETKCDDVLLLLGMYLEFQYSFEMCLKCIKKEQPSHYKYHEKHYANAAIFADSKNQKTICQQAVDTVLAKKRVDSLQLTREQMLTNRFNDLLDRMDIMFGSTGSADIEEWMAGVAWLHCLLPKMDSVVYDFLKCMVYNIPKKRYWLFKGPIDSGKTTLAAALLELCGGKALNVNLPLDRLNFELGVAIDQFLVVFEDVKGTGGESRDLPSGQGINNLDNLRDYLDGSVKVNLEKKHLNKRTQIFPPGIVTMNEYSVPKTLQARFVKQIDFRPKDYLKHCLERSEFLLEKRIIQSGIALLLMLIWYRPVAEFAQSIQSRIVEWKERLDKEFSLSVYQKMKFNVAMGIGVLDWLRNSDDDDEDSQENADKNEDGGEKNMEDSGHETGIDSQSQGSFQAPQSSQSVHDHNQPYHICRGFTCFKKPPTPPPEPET
Chain of Sphingosine 1-phosphate receptor 4 (O95977 whole entry): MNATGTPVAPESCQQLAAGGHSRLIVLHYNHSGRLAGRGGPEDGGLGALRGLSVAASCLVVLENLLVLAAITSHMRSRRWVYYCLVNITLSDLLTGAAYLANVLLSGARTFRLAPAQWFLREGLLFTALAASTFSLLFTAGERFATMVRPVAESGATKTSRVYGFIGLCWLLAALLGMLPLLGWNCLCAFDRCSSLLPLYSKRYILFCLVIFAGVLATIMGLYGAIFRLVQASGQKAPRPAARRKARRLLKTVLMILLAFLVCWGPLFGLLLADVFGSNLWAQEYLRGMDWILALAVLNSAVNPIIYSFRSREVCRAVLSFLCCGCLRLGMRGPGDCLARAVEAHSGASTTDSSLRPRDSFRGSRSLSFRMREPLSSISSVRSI

For `CC(=O)N(C1=C(Cl)C(=O)c2ccccc2C1=O)C1CCCCC1`, the IC50 [1] was 2.03 µM (active) and the IC50 [2] was 7.15 µM (active).
`Oc1ccc(-c2cn3c(n2)SCC3)cc1O` was tested, and the IC50 [3] was 9.74 µM (active).
`O=C1Nc2ccc3ncsc3c2C1=CNc1ccc(S(=O)(=O)Nc2ccccn2)cc1` was tested, and the Ki [4] was > 7.94 µM (inactive), the Ki [5] was 0.0126 µM (active) and the Ki [6] was 0.126 µM (active). The Ki [7] was 0.01 µM (active), the Ki [8] was 0.158 µM (active) and the Ki [9] was 0.794 µM (active). The Ki [10] was 0.126 µM (active), the Ki [11] was 0.0251 µM (active) and the Ki [12] was 1.26 µM (active). The Ki [13] was 0.126 µM (active).
